We go through 25 compounds from patent US8697727B2, “N-substituted-heterocycloalkyloxybenzamide compounds and methods of use” (Rigel Pharmaceuticals, Inc., priority 2006, dated 2014).

Structures are written as SMILES.

The test concerns AMPK. The experiment in a line: AMPK activation, enzyme-linked immunosorbent assay. The class given is cell-based. The gist of the method: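 Each compound's EC50 for AMPK activation was the endpoint. In a cell-based assay, AMPK activity was read out as the relative concentration of phosphorylated acetyl-CoA carboxylase, a product of AMPK, measured by enzyme-linked immunosorbent assay. Values fell into the ranges less than 1 μM, 1-10 μM, 10-20 μM, 20-50 μM, 50-100 μM, and >100 μM.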
The EC50 is the concentration that produces a half-maximal response. High values mean a need for much substance, low ones an effect from little substance. Turning to `O=C(NC1CCN(Cc2ccccn2)CC1)c1ccc(OC2CCN(c3ccc(C(F)(F)F)cc3)CC2)c(F)c1` [Compound 32, 3-fluoro-N-(1-(pyridin-2-ylmethyl)piperidin-4-yl)-4-(1-(4-(trifluoromethyl)phenyl)piperidin-4-yloxy)benzamide], the EC50 was less than 1000 nM.
As for `O=C(NC1CCN(Cc2ccccc2)CC1)c1ccc(OC2CCN(Cc3ccc(F)c(F)c3)CC2)c(F)c1` [Compound 69, N-(1-benzylpiperidin-4-yl)-4-(1-(3,4-difluorobenzyl)piperidin-4-yloxy)-3-fluorobenzamide], the EC50 was less than 1000 nM.
Regarding `Cc1ccc(CN2CCC(Oc3ccc(C(=O)NC4CCN(Cc5ccc(F)cc5)CC4)cc3Cl)CC2)cc1` [Compound 68, 3-chloro-N-(1-(4-fluorobenzyl)piperidin-4-yl)-4-(1-(4-methylbenzyl)piperidin-4-yloxy)benzamide], the 50% effective concentration (EC50) is less than 1000 nM.
In turn, `CC(C)(C)OC(=O)N1CCN(C(=O)c2ccc(OC3CCN(Cc4ccccc4)CC3)cc2)CC1` [Compound 99, tert-butyl 4-(4-(1-benzylpiperidin-4-yloxy)benzoyl)piperazine-1-carboxylate] displayed an EC50 of 1000 to 10000 nM.
`O=C(NC1CCN(Cc2ccccc2)CC1)c1ccc(OC2CCN(Cc3ccc(F)c(F)c3)CC2)c(Cl)c1` [Compound 74, N-(1-benzylpiperidin-4-yl)-3-chloro-4-(1-(3,4-difluorobenzyl)piperidin-4-yloxy)benzamide]: the EC50 is less than 1000 nM.
`COc1ccc(CN2CCC(Oc3ccc(C(=O)N4CCN(C(=O)OC(C)(C)C)CC4)cc3)CC2)cc1` [Compound 96, tert-butyl 4-(4-(1-(4-methoxybenzyl)piperidin-4-yloxy)benzoyl)piperazine-1-carboxylate] yielded an EC50 of 1000 to 10000 nM.
Regarding `CC(C)(C)c1ccc(CN2CCC(Oc3ccc(C(=O)NC4CCN(Cc5ccccc5)CC4)cc3Cl)CC2)cc1` [Compound 16, N-(1-benzylpiperidin-4-yl)-4-(1-(4-tert-butylbenzyl)piperidin-4-yloxy)-3-chlorobenzamide], the 50% effective concentration (EC50) was less than 1000 nM.
Then `O=C(NC1CCN(Cc2ccccc2)CC1)c1ccc(OC2CCN(Cc3ccc4c(c3)OCCO4)CC2)c(Cl)c1` [Compound 15, N-(1-benzylpiperidin-4-yl)-3-chloro-4-(1-((2,3-dihydrobenzo[b][1,4]dioxin-6-yl)methyl)piperidin-4-yloxy)benzamide], with less than 1000 nM; and `N#Cc1ccc(N2CCC(Oc3ccc(C(=O)NC4CCN(Cc5ccncc5)CC4)cc3F)CC2)cc1` [Compound 44, 4-(1-(4-cyanophenyl)piperidin-4-yloxy)-3-fluoro-N-(1-(pyridin-4-ylmethyl)piperidin-4-yl)benzamide], with less than 1000 nM; and `CC(C)(C)c1ccc(CN2CCC(Oc3ccc(C(=O)NC4CCN(c5ccccc5)CC4)cc3F)CC2)cc1` [Compound 36, 4-(1-(4-tert-butylbenzyl)piperidin-4-yloxy)-3-fluoro-N-(1-phenylpiperidin-4-yl)benzamide], with less than 1000 nM.
Then `O=C(NC1CCN(Cc2ccccc2)CC1)c1ccc(OC2CCN(Cc3ccccn3)CC2)c(F)c1` [Compound 39, N-(1-benzylpiperidin-4-yl)-3-fluoro-4-(1-(pyridin-2-ylmethyl)piperidin-4-yloxy)benzamide], with 1000 to 10000 nM; and `O=C(NC1CCN(Cc2ccccc2)CC1)c1cc(Cl)c(OC2CCN(Cc3cccc(C(F)(F)F)c3)CC2)c(Cl)c1` [Compound 62, N-(1-benzylpiperidin-4-yl)-3,5-dichloro-4-(1-(3-(trifluoromethyl)benzyl)piperidin-4-yloxy)benzamide], with less than 1000 nM.
Consider `N#Cc1ccc(N2CCC(Oc3ccc(C(=O)NC4CCN(Cc5ccccc5)CC4)c(Cl)c3)CC2)cc1` [Compound 49, N-(1-benzylpiperidin-4-yl)-2-chloro-4-(1-(4-cyanophenyl)piperidin-4-yloxy)benzamide], for which the concentration for a half-maximal effect (EC50) is less than 1000 nM.
Then `CC(C)(C)C(=O)N1CCC(NC(=O)c2ccc(OC3CCN(c4ccc(C(F)(F)F)cc4)CC3)c(F)c2)CC1` [Compound 30, 3-fluoro-N-(1-pivaloylpiperidin-4-yl)-4-(1-(4-(trifluoromethyl)phenyl)piperidin-4-yloxy)benzamide], with less than 1000 nM; and `O=C(NC1CCN(Cc2cccnc2)CC1)c1ccc(OC2CCN(c3ccc(C(F)(F)F)cc3)CC2)c(F)c1` [Compound 29, 3-fluoro-N-(1-(pyridin-3-ylmethyl)piperidin-4-yl)-4-(1-(4-(trifluoromethyl)phenyl)piperidin-4-yloxy)benzamide], with less than 1000 nM; and `COc1cc(C(=O)NC2CCN(Cc3ccccc3)CC2)ccc1OC1CCN(CCCc2ccccc2)CC1` [Compound 7, N-(1-benzylpiperidin-4-yl)-3-methoxy-4-(1-(3-phenylpropyl)piperidin-4-yloxy)benzamide], with less than 1000 nM.
Then `N#Cc1ccc(N2CCC(Oc3cccc(C(=O)NC4CCN(Cc5ccncc5)CC4)c3)CC2)cc1` [Compound 88, N-(1-(pyridin-4-ylmethyl)piperidin-4-yl)-3-(1-(4-cyanophenyl)piperidin-4-yloxy)benzamide], with 1000 to 10000 nM; and `Cc1ccc(CN2CCC(Oc3ccc(C(=O)NC4CCN(Cc5ccc(Cl)cc5)CC4)cc3F)CC2)cc1` [Compound 73, N-(1-(4-chlorobenzyl)piperidin-4-yl)-3-fluoro-4-(1-(4-methylbenzyl)piperidin-4-yloxy)benzamide], with less than 1000 nM; and `O=C(NC1CCN(Cc2ccccc2)CC1)c1ccc(OC2CCN(Cc3ccc(OC(F)(F)F)cc3)CC2)c(Cl)c1` [Compound 54, N-(1-benzylpiperidin-4-yl)-3-chloro-4-(1-(4-(trifluoromethoxy)benzyl)piperidin-4-yloxy)benzamide], with less than 1000 nM.
Then `O=C(NCCCN1CCOCC1)c1ccc(OC2CCN(Cc3ccc(Cl)cc3)CC2)cc1` [Compound 100, 4-(1-(4-chlorobenzyl)piperidin-4-yloxy)-N-(3-morpholinopropyl)benzamide], with 1000 to 10000 nM; and `O=C(NC1CCN(Cc2ccccc2)CC1)c1ccc(OC2CCN(c3ccc(C(F)(F)F)cc3)CC2)cc1Cl` [Compound 47, N-(1-benzylpiperidin-4-yl)-2-chloro-4-(1-(4-(trifluoromethyl)phenyl)piperidin-4-yloxy)benzamide], with less than 1000 nM; and `O=C(NC1CCN(Cc2ccccc2)CC1)c1ccc(OC2CCN(Cc3ccncc3)CC2)c(Cl)c1` [Compound 6, N-(1-benzylpiperidin-4-yl)-3-chloro-4-(1-(pyridin-4-ylmethyl)piperidin-4-yloxy)benzamide], with less than 1000 nM.
In turn, `COc1ccc(CN2CCC(Oc3ccc(C(=O)NCCCNC(=O)OC(C)(C)C)cc3Cl)CC2)cc1` [Compound 97, tert-butyl 3-(3-chloro-4-(1-(4-methoxybenzyl)piperidin-4-yloxy)benzamido)propylcarbamate] had an EC50 of 1000 to 10000 nM.
Then `O=C(NC1CCN(Cc2ccccc2)CC1)c1ccc(OC2CCN(Cc3ccccc3)CC2)c(Cl)c1` [Compound 14, N-(1-benzylpiperidin-4-yl)-4-(1-benzylpiperidin-4-yloxy)-3-chlorobenzamide], with less than 1000 nM.
Then `O=C(NC1CCN(Cc2ccccc2)CC1)c1ccc(OC2CCN(Cc3ccco3)CC2)cc1` [Compound 3, N-(1-benzylpiperidin-4-yl)-4-(1-(furan-2-ylmethyl)piperidin-4-yloxy)benzamide], with 1000 to 10000 nM.
